Measurements as given in patent US20240131028A1, “CHEMOVACCINATION AGAINST PLASMODIUM INFECTION WITH SELECTIVE PLASMEPSIN X INHIBITORS” (Merck Sharp & Dohme LLC, priority 2021, published 2024).
Read-outs that look alike come from different tables or passages of the source.

System: ring stage parasites (Pf)
Assay: Parasite lactate dehydrogenase (LDH) growth assay (Parasite Assay, PfLDH Assay)
Assay type: cell-based, P. falciparum
Settings: Table 3, 72 hours growth, LDH readout, read-out: EC50

Compound	EC50 (Plasmodium falciparum, 72 h) [nM]	EC50 [nM]
CC1(C)CC(=O)N([C@@H](c2ccc(C#N)cc2)[C@H]2C[C@@H]2C(=O)N[C@H]2C[C@H](C(F)(F)F)Oc3ccccc32)C(=N)N1 [Example 47A]	155	
CC1(C)CC(=O)N([C@H](c2ccc(C#N)cc2)[C@H]2C[C@@H]2C(=O)N[C@H]2C[C@H](C(F)(F)F)Oc3ccccc32)C(=N)N1 [Example 47B]	0.9	
CCC1(CC)CC(=O)N([C@H](c2cccnc2)[C@@H]2[C@@H](C(=O)N[C@H]3CC(C)(C)Oc4ccccc43)C2(C)C)C(=N)N1 [Example 48A]	2.7	
CCC1(CC)CC(=O)N([C@@H](c2cccnc2)[C@@H]2[C@@H](C(=O)N[C@H]3CC(C)(C)Oc4ccccc43)C2(C)C)C(=N)N1 [Example 48B]	7.4	
CC1(C)CC(=O)N(C(c2cccnc2)[C@@H]2[C@@H](C(=O)N[C@H]3CC(C)(C)Oc4ccccc43)C2(C)C)C(=N)N1 (stereo partly shown) [Example 49A]	20	
CC1(C)CC(=O)N(C(c2cccnc2)[C@@H]2[C@@H](C(=O)N[C@H]3CC(C)(C)Oc4ccccc43)C2(C)C)C(=N)N1 (stereo partly shown) [Example 49B]		14
CC1(C)CC(=O)N([C@H](c2cccc(C#N)c2)[C@H]2C[C@@H]2C(=O)N[C@H]2CC(C)(C)Oc3ccccc32)C(=N)N1 [Example 50]	3	
CC1(C)CC(=O)N([C@H](c2cccc(C#N)c2)[C@H]2C[C@@H]2C(=O)N[C@@H]2c3ccccc3OC(C)(C)[C@H]2O)C(=N)N1 [Example 51]	5.3	
CC1(C)CC(=O)N([C@H](c2cccc(C#N)c2)[C@H]2C[C@@H]2C(=O)N[C@H]2C[C@H](C(F)(F)F)Oc3ccccc32)C(=N)N1 [Example 52]	1	
CC1(C)CC(=O)N(C(c2cccc(C#N)c2)[C@H]2C[C@@H]2C(=O)NC2CC(C)(C)Oc3ccc(F)cc32)C(=N)N1 (stereo partly shown) [Example 53A]	3.1	
CC1(C)CC(=O)N(C(c2cccc(C#N)c2)[C@H]2C[C@@H]2C(=O)NC2CC(C)(C)Oc3ccc(F)cc32)C(=N)N1 (stereo partly shown) [Example 53B]		2.1
CCC1(CC)CC(=O)N([C@@H](c2cccnc2)[C@H]2C(C)[C@@H]2C(=O)N[C@H]2CC(C)(C)Oc3ccccc32)C(=N)N1 (stereo partly shown) [Example 56A]	65	
CCC1(CC)CC(=O)N([C@H](c2cccnc2)[C@H]2C(C)[C@@H]2C(=O)N[C@H]2CC(C)(C)Oc3ccccc32)C(=N)N1 (stereo partly shown) [Example 56B]	0.7	
CC1[C@H]([C@@H](c2cccnc2)N2C(=N)NC(C)(C)CC2=O)[C@H]1C(=O)N[C@H]1CC(C)(C)Oc2ccccc21 (stereo partly shown) [Example 57A]	3.2	
CC1[C@H](C(c2cccnc2)N2C(=N)NC(C)(C)CC2=O)[C@H]1C(=O)N[C@H]1CC(C)(C)Oc2ccccc21 (stereo partly shown) [Example 57B]	100	
CC1(C)CC(=O)N([C@@H](c2cncc(Cl)c2)[C@H]2C[C@@H]2C(=O)N[C@H]2CC(C)(C)Oc3ccccc32)C(=N)N1 [Example 58A]	210	
CC1(C)CC(=O)N([C@H](c2cncc(Cl)c2)[C@H]2C[C@@H]2C(=O)N[C@H]2CC(C)(C)Oc3ccccc32)C(=N)N1 [Example 58B]	1	
CC1(C)CC(=O)N([C@H](c2cncc(Cl)c2)[C@H]2C[C@@H]2C(=O)N[C@@H]2c3ccccc3OC(C)(C)[C@H]2O)C(=N)N1 [Example 59]	3.8	
CC1(C)CC(=O)N([C@H](c2cncc(Cl)c2)[C@H]2C[C@@H]2C(=O)N[C@H]2C[C@H](C(F)(F)F)Oc3ccccc32)C(=N)N1 [Example 60A]	0.5	
CC1(C)CC(=O)N([C@@H](c2cncc(Cl)c2)[C@H]2C[C@@H]2C(=O)N[C@H]2C[C@H](C(F)(F)F)Oc3ccccc32)C(=N)N1 [Example 60B]	100	
CC[C@]1(C)CC(=O)N([C@H](CCOC)[C@H]2C[C@@H]2C(=O)N[C@@H]2c3ccccc3OC(C)(C)[C@H]2O)C(=N)N1 [Example 61]	6.9	
CC[C@]1(C)CC(=O)N([C@@H](CCOC)[C@H]2C[C@@H]2C(=O)N[C@H]2C[C@H](C(F)(F)F)Oc3ccccc32)C(=N)N1 [Example 62A]	31	
